Tested on: type 2 diabetes patients
Test: Laboratory analyses in the clinical trial: HbA1c, plasma glucose, lipids, hsCRP
Assay type: in vivo, human
Settings: for HbA1c level at end of study: after 36 weeks of treatment, GLA vs. MET n.s.; for HbA1c level at start of study: baseline value of the 'x to y' pair; for Triglycerides - change / HDL - change / HbA1c - change / LDL - change / Plasma glucose - change, 2 h after test meal / Plasma glucose - change, Fasting / Total chol. - change / hsCRP - change / Triglycerides - visit 8 / HDL - visit 8 / HbA1c - visit 8 / LDL - visit 8 / Plasma glucose - visit 8, 2 h after test meal / Plasma glucose - visit 8, Fasting / Total chol. - visit 8 / hsCRP - 8th visit: per protocol, mean (SD); for Triglycerides - change / HDL - change / HbA1c - change / LDL - change / Plasma glucose - change, 2 h after test meal / Plasma glucose - change, Fasting / Total chol. - change / hsCRP - change: change visit 1 to visit 8; for HDL - change / HbA1c - change / LDL - change / Plasma glucose - change, 2 h after test meal / Plasma glucose - change, Fasting / Total chol. - change / hsCRP - change / HDL - visit 8 / HbA1c - visit 8 / LDL - visit 8 / Plasma glucose - visit 8, 2 h after test meal / Plasma glucose - visit 8, Fasting / Total chol. - visit 8 / hsCRP - 8th visit: unit as in Table 4; for Triglycerides - visit 8 / HDL - visit 8 / HbA1c - visit 8 / LDL - visit 8 / Plasma glucose - visit 8, 2 h after test meal / Plasma glucose - visit 8, Fasting / Total chol. - visit 8 / hsCRP - 8th visit: week 36; for reduction in the FPG level (Δ): start to end of study (36 weeks), GLA vs. MET p<0.001
Description: Test meal: On the morning of the 2nd day of the CGM, there is a standardized test meal in the trial center. This test meal (TM) consists of 95 g of whole-wheat bread, 20 g of margarine, 25 g of fruit preserves, 25 g of cheese, 200 ml of orange juice, 200 ml of milk mix with banana, strawberry or cocoa with a total of 560 Kcal. Blood is taken from the patient prior to the TM (after night-time fasting period of at least 8 hours). […] From the 1st bite, the time is measured, and after 2 h have elapsed, a 2nd blood collection is performed. During the TM and during the two hours thereafter, the patient should move as little as possible so as not to falsify the monitoring.
Fasting blood is collected between 7 and 9 o'clock in the morning when the patient turns up at the center.
Laboratory analyses: The blood samples for the clinical laboratory tests are analyzed in the central laboratory and the local laboratories according to standardized conditions. The central laboratory and the local laboratories provide on request corresponding documentation (e.g., normal value tables, round-robin test certificates in accordance with RiLiBÄK (Guidelines of the German Medical Association)) for the trial master file. The central laboratory is responsible for the collection, transport and analysis of the blood samples and instructs the trial center on sample management.
The patients were treated with either metformin (MET, 1000 mg b.i.d. (n=3)) or insulin glargine (GLA) q.d. just before bedtime (n=3). […] At the start and end of the study, the HbA1c level and the plasma glucose, proinsulin and C-peptide concentrations were determined. […] All the patients received a standardized test meal on the second day of the continuous glucose monitoring for comparison of the interindividual postprandial (pp) glucose excursions.

Compound	HbA1c level at end of study [%]	HbA1c level at start of study [%]	Triglycerides - change	HDL - change	HbA1c - change	LDL - change	Plasma glucose - change, 2 h after test meal	Plasma glucose - change, Fasting	Total chol. - change	hsCRP - change	Triglycerides - visit 8	HDL - visit 8	HbA1c - visit 8	LDL - visit 8	Plasma glucose - visit 8, 2 h after test meal	Plasma glucose - visit 8, Fasting	Total chol. - visit 8	hsCRP - 8th visit	reduction in the FPG level (Δ) [mmol/L]	control of the fasting glucose level and of the overall glycemic situation (early treatment, compared to standard treatment with MET)
CN(C)C(=N)N=C(N)N [Metformin]	6.3	6.9	−0.2 (1.1) mmol/l	0.1 (0.2) mmol/l	−0.6 (0.4) %	−0.03 (0.6) mmol/l	−1.6 (2.5) mmol/l	−1.4 (1.5) mmol/l	−0.02 (0.7) mmol/l	−0.2 (2.2) mg/l	1.9 (0.8) mmol/l	1.3 (0.4) mmol/l	6.3 (0.3) %	3.1 (0.9) mmol/l	8.4 (2.1) mmol/l	7.2 (1.0) mmol/l	5.3 (1.0) mmol/l	3.1 (5.2) mg/l	1.4 ± 1.5	–
Insulin glargine	6.4	7.2	−0.2 (1.8) mmol/l	0.1 (0.2) mmol/l	−0.8 (0.7) %	−0.1 (0.7) mmol/l	−2.8 (3.2) mmol/l	−3.1 (2.5) mmol/l	−0.04 (0.8) mmol/l	0.1 (3.0) mg/l	2.2 (2.0) mmol/l	1.3 (0.3) mmol/l	6.4 (0.4) %	3.1 (0.8) mmol/l	8.3 (2.5) mmol/l	6.1 (1.1) mmol/l	5.2 (1.0) mmol/l	3.1 (2.9) mg/l	3.1 ± 2.5	more effective control
